In publication PMC8151276, “An Integrated Approach toward NanoBRET Tracers for Analysis of GPCR Ligand Engagement” (Molecules, 2021):

Tests used:
Assay type in all cases: binding
[1] = molecular target: T1, CCR2 (Homo sapiens, UniProt P41597); test: NanoBRET screen HiBiT-CCR2 in HEK293; conditions: CCR2
T1 construct: purchased Promega (in-house HiBiT-GPCR construct library, NanoBRET)
Protocol: (§1) Each tracer candidate was screened across the entire library of HiBiT-GPCR constructs using NanoBRET as the detection modality. As depicted in Figure 4A, the specificity of interactions was evaluated through decrease in BRET due to competitive displacement of a bound tracer by excess parental compound. Each tracer was analyzed for binding to each HiBiT-GPCR fusion in the absence and in the presence of competing parental compound. Briefly, HEK293 cells were transfected with HiBiT-GPCR constructs diluted into promoterless DNA to reduce expression and maximize translocation to the cell surface. Each tracer candidate was then screened at concentrations of 1 μM and 0.1 μM across cells expressing these fusions. Cells were treated for 1.5 h with tracer either alone or in the presence of 20 μM competing parental compound (i.e., control). BRET was measured upon addition of purified LgBiT and subsequent complementation with HiBiT genetically fused to a GPCR. The specificity of interactions was assessed through a decrease in BRET signal due to competitive displacement of the bound tracer. To further gauge the robustness of these interactions, the fold response over the control (i.e., BRETtracer/BRETcontrol) was calculated. We chose a 1.5-fold response, which translates to ≥7-fold signal over noise as the minimal threshold required to score an interaction as positive. […]. Below we highlight the screening results obtained for our exemplary fluorescent tracers based on Clozapine, Amitriptyline and AZD1283.
(§2) HiBiT-GPCR DNA constructs were diluted in 10 mM Tris pH 8 to a final concentration of 0.01 μg/μL, arrayed in 96-well plates and stored at −20 °C. For transfection, HEK293 cells were suspended in Opti-MEM (without phenol red) supplemented with 2% fetal bovine serum (Seradigm) and 100 units/mL penicillin–streptomycin (Gibco) at a final concentration of 220,000 cells/mL and dispensed into white 96-well plates at 90 μL/well. Subsequent transfections and screens were carried using an Agilent Bravo Automated Liquid Handling Platform. First, the 96-well HiBiT DNA arrays were diluted 25-fold in Opti-MEM (without serum or phenol red) to a final concentration of 0.0004 μg/μL and 20 μL of the diluted DNAs were transferred into new 96-well plates. Next, promoterless carrier DNA (1 μg/μL) was diluted 25-fold (0.04 μg/μL) and then dispensed into the diluted arrays at 20 μL/well. Following brief mixing, Viafect transfection reagent (Promega) diluted 16-fold into Opti-MEM was dispensed into the plates at 40 μL/well. After mixing by pipetting, plates were incubated for 10 min on the pipetting station deck. The DNA-transfection reagent complexes were then added to plates containing cells. To facilitate the screen, 10 μL of DNA-transfection reagent complexes were added in duplicates to the top 4 and bottom 4 rows, resulting in two identical 48-well arrays per plate. Plates with transfected cells were incubated for 18–20 h at 37 °C/5% CO2. A screen of each tracer across the entire library using two different concentrations requires duplicate plates of transfected cells. Depending on the number of tracers being screened, transfections can be scaled up using the same ratios. The next day, for each tracer, four 20× screening solutions in tracer dilution buffer (Promega) were prepared: two duplicates at final concentration of 20 μM and two duplicates at a final concentration of 2 μM. A competing unmodified compound was added to one of each duplicate at a final concentration of 400 μM. The four resulting solutions were diluted 4-fold in Opti-MEM without serum or phenol red to generate 5× solutions (5 µM and 0.5 µM tracer +/− 100 μM competing compound). To screen the library, a BioTek MultiFlo FX liquid dispenser was used to dispense 22.5 µL of tracer solution to the top 4 rows and 22.5 µL tracer + competing compound solution to the 4 bottom rows. Plates were briefly mixed on an orbital shaker and incubated for 1.5 h at room temperature. […]

[2] = molecular target: T2, MC4R (Homo sapiens, UniProt P32245); test: NanoBRET screen HiBiT-MC4R in HEK293; conditions: MC4R
T2 construct: purchased Promega (in-house HiBiT-GPCR construct library, NanoBRET)
T2 sequence (P32245 whole entry): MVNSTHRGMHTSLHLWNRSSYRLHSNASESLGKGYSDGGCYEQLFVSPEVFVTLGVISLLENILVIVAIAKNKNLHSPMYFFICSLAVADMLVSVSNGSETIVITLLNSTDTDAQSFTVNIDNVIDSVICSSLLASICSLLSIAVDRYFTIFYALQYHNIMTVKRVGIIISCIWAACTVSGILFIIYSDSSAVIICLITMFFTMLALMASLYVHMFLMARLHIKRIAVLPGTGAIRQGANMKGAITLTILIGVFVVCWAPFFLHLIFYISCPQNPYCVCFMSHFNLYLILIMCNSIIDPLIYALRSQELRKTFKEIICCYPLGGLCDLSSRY
Protocol: as §1, §2

[3] = molecular target: T3, MC3R (Homo sapiens, UniProt P41968); test: NanoBRET screen HiBiT-MC3R in HEK293; conditions: MC3R
T3 construct: purchased Promega (in-house HiBiT-GPCR construct library, NanoBRET)
T3 sequence (P41968 whole entry): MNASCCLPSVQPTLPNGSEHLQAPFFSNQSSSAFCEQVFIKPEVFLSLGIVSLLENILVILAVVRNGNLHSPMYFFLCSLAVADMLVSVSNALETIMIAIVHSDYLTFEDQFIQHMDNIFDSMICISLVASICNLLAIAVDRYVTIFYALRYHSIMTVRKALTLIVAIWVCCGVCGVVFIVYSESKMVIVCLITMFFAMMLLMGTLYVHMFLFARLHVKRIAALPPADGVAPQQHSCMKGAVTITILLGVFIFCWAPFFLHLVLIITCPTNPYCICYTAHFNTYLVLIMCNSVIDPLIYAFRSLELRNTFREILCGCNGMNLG
Protocol: as §1, §2

[4] = molecular target: T4, ACKR3 (Homo sapiens, UniProt P25106); test: NanoBRET screen HiBiT-ACKR3 in HEK293; conditions: ACKR3
T4 construct: purchased Promega (in-house HiBiT-GPCR construct library, NanoBRET)
T4 sequence (P25106 whole entry): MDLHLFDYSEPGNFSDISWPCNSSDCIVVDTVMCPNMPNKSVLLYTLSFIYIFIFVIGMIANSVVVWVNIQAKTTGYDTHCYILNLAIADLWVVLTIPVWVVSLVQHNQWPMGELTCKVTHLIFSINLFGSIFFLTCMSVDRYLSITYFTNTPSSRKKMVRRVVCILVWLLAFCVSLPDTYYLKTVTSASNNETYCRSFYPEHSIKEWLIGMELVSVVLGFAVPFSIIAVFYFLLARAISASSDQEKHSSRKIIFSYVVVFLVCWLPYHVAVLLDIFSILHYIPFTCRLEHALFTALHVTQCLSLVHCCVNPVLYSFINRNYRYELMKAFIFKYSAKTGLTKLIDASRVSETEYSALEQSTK
Protocol: as §1, §2

[5] = molecular target: T5, GALR3 (Homo sapiens, UniProt O60755); test: NanoBRET screen HiBiT-GALR3 in HEK293; conditions: GALR3
T5 construct: purchased Promega (in-house HiBiT-GPCR construct library, NanoBRET)
T5 sequence (O60755 1-368): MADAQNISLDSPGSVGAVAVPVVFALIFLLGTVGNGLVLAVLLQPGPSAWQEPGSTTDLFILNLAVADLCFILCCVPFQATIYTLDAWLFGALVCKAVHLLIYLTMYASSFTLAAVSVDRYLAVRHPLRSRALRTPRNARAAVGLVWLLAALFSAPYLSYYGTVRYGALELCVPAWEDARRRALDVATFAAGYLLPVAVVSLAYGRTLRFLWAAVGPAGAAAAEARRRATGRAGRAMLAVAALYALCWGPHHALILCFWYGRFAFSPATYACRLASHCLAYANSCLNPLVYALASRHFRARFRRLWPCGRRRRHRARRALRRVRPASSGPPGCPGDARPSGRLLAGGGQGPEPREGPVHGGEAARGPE
Protocol: as §1, §2

[6] = molecular target: T6, PTGDR (Homo sapiens, UniProt Q13258); test: NanoBRET screen HiBiT-PTGDR in HEK293; conditions: PTGDR
T6 construct: purchased Promega (in-house HiBiT-GPCR construct library, NanoBRET)
T6 sequence (Q13258 1-359): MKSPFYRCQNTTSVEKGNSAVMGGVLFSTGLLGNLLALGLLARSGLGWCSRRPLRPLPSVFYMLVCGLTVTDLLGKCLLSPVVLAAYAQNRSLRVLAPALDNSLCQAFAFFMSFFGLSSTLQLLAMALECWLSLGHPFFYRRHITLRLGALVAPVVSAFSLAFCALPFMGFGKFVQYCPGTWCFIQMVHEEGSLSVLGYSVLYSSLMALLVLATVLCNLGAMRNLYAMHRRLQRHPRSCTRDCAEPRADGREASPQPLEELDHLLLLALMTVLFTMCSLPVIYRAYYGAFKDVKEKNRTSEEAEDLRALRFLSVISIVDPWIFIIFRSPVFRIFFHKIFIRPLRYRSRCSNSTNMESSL
Protocol: as §1, §2

[7] = molecular target: T7, GCGR (Homo sapiens, UniProt P47871); test: NanoBRET screen HiBiT-GCGR in HEK293; conditions: GCGR
T7 construct: purchased Promega (in-house HiBiT-GPCR construct library, NanoBRET)
T7 sequence (P47871 26-477): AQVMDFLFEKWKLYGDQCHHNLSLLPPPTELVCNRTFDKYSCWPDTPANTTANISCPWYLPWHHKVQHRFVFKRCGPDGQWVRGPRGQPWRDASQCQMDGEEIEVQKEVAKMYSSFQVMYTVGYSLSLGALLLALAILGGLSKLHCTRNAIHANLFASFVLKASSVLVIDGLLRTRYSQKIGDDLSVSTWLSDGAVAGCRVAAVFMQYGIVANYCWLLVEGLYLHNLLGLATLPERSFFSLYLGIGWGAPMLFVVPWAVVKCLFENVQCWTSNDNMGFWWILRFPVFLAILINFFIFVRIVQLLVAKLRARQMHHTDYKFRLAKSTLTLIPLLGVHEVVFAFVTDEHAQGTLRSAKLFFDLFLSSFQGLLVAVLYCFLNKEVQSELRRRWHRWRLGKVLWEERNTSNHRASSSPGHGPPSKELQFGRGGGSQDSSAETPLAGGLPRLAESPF
Protocol: as §1, §2

[8] = molecular target: T8, PDGFRB (Homo sapiens, UniProt P09619); test: NanoBRET screen HiBiT-PDGFRB in HEK293; conditions: PDGFRB
T8 construct: purchased Promega (in-house HiBiT-GPCR construct library, NanoBRET)
T8 sequence (P09619 33-1106): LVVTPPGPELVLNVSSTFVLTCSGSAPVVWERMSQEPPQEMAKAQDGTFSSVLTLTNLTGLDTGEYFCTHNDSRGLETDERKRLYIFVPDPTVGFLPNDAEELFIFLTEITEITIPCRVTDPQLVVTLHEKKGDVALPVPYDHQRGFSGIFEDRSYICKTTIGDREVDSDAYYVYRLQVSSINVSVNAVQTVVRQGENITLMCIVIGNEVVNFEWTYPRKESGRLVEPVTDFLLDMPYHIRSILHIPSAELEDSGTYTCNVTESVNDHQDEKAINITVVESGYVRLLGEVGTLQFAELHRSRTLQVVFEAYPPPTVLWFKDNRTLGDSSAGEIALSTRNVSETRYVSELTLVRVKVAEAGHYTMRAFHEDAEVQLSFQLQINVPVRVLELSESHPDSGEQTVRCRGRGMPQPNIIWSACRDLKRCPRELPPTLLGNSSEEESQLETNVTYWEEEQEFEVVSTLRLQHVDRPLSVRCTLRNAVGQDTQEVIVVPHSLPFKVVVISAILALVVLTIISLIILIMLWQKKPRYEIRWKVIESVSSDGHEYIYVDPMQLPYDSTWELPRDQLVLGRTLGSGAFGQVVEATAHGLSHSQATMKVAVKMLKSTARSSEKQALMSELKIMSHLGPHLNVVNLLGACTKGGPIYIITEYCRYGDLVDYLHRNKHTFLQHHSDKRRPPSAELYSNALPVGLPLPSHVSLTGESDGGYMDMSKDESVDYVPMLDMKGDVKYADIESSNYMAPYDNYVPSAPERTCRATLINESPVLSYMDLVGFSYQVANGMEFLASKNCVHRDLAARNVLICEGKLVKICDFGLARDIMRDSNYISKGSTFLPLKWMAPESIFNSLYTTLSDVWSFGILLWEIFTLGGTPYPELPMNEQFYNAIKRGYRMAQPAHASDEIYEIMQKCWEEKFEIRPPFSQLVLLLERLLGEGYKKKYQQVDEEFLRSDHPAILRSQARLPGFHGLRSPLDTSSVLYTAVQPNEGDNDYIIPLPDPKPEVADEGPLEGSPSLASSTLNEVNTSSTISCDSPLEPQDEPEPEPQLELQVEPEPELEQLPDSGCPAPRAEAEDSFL
Protocol: as §1, §2

[9] = molecular target: T9, P2RY10 (Homo sapiens, UniProt O00398); test: NanoBRET screen HiBiT-P2RY10 in HEK293; conditions: P2RY10
T9 construct: purchased Promega (in-house HiBiT-GPCR construct library, NanoBRET)
T9 sequence (O00398 whole entry, one chain of several): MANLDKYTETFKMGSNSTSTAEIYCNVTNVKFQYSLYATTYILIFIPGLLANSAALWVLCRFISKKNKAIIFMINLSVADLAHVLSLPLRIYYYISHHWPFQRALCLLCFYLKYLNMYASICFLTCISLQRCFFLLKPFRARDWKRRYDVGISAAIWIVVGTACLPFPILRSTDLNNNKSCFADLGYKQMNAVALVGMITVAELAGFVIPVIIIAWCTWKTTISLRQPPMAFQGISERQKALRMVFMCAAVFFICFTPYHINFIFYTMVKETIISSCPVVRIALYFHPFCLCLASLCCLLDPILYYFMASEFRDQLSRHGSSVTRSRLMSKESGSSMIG
Protocol: as §1, §2

[10] = molecular target: T10, P2RY2 (Homo sapiens, UniProt P41231); test: NanoBRET screen HiBiT-P2RY2 in HEK293; conditions: P2RY2
T10 construct: purchased Promega (in-house HiBiT-GPCR construct library, NanoBRET)
T10 sequence (P41231 whole entry): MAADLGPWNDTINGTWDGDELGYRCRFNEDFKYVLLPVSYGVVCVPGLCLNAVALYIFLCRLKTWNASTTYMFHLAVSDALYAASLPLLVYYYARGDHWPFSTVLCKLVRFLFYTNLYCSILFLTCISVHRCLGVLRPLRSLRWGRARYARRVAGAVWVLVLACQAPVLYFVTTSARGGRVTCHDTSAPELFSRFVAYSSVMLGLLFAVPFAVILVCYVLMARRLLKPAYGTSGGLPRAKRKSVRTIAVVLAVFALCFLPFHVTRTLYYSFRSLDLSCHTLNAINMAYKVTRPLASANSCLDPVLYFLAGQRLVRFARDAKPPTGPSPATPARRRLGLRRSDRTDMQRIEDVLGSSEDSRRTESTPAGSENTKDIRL
Protocol: as §1, §2

T1 sequence (P41597 whole entry): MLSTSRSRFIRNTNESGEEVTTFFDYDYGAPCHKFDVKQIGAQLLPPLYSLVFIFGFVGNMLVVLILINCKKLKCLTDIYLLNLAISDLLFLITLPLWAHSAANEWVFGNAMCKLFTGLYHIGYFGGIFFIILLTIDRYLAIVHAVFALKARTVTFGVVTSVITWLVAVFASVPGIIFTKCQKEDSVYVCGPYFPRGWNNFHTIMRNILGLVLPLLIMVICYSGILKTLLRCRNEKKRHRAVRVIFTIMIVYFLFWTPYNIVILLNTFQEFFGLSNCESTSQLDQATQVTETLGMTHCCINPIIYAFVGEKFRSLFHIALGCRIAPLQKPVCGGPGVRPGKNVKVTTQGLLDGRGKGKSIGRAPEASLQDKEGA

SMILES | NanoBRET Fold Response ([1]; tracer 0.1μM) | NanoBRET Fold Response ([1]; tracer 1μM) | NanoBRET Fold Response ([2]; tracer 0.1μM) | NanoBRET Fold Response ([2]; tracer 1μM) | NanoBRET Fold Response ([3]; tracer 0.1μM) | NanoBRET Fold Response ([3]; tracer 1μM) | NanoBRET Fold Response ([4]; tracer 0.1μM) | NanoBRET Fold Response ([4]; tracer 1μM) | NanoBRET Fold Response ([5]; tracer 0.1μM) | NanoBRET Fold Response ([5]; tracer 1μM) | NanoBRET Fold Response ([6]; tracer 0.1μM) | NanoBRET Fold Response ([6]; tracer 1μM) | NanoBRET Fold Response ([7]; tracer 0.1μM) | NanoBRET Fold Response ([7]; tracer 1μM) | NanoBRET Fold Response ([8]; tracer 0.1μM) | NanoBRET Fold Response ([8]; tracer 1μM) | NanoBRET Fold Response ([9]; tracer 0.1μM) | NanoBRET Fold Response ([9]; tracer 1μM) | NanoBRET Fold Response ([10]; tracer 0.1μM) | NanoBRET Fold Response ([10]; tracer 1μM) | also measured
O=C(CCOCCOCCOCCOCCNC(=O)CCc1ccc2n1[B-](F)(F)[N+]1=C(c3ccc[nH]3)C=CC1=C2)NCCCN1CCN(C2=Nc3ccccc3Oc3ccc(Cl)cc32)CC1 [Loxapine-a-2-NB590] | 0.97 | 0.81 | 1.04 | 1.04 | 1.00 | 1.00 | 0.30 | 1.02 | 0.95 | 1.10 | 0.93 | 0.98 | 1.05 | 1.24 | 1.12 | 1.00 | 1.14 | 0.98 | 0.99 | 1.05 | 
COc1ccccc1N1CCN(CCCCN2C(=O)c3ccc(CNC(=O)CCOCCNC(=O)c4ccc(CNC(=O)CCc5ccc6n5[B-](F)(F)[N+]5=C(c7ccc[nH]7)C=CC5=C6)cc4)cc3C2=O)CC1 [NAN-190-3-NB590] | 0.82 | 0.94 | 1.05 | 0.83 | 1.10 | 0.95 | 0.77 | 1.10 | 0.97 | 0.92 | 0.96 | 0.98 | 0.84 | 0.76 | 0.93 | 1.07 | 1.23 | 1.08 | 1.00 | 1.01 | 
O=C(CCc1ccc2n1[B-](F)(F)[N+]1=C(c3ccc[nH]3)C=CC1=C2)NCc1ccc(C(=O)NCCOCCC(=O)N[C@@H]2CC[C@@]3(O)[C@H]4Cc5ccc(O)c6c5[C@@]3(CCN4CC3CC3)[C@H]2O6)cc1 [Naltrexone-3-NB590] | 1.12 | 0.70 | 1.06 | 1.06 | 0.90 | 1.11 | 1.11 | 1.07 | 1.03 | 1.01 | 0.85 | 0.97 | 1.06 | 0.92 | 0.24 | 0.95 | 1.07 | 1.36 | 0.90 | 1.10 | 
Cc1cc2c(s1)Nc1ccccc1N=C2N1CCN(CCCNC(=O)CCOCCOCCOCCOCCNC(=O)CCc2ccc3n2[B-](F)(F)[N+]2=C(c4ccc[nH]4)C=CC2=C3)CC1 [Olanzapine-a-2-NB590] | 1.00 | 0.59 | 1.00 | 1.07 | 1.00 | 1.12 | 0.94 | 0.83 | 1.12 | 0.87 | 0.95 | 1.09 | 0.97 | 0.95 | 0.98 | 1.05 | 0.99 | 1.15 | 0.95 | 1.13 | 
O=C(CCc1ccc2n1[B-](F)(F)[N+]1=C(c3ccc[nH]3)C=CC1=C2)NCc1ccc(C(=O)NCCOCCOCCNCC(O)COc2cccc3ccccc23)cc1 (stereo not shown) [Propranolol-3-NB590] |  |  |  |  |  |  |  |  |  |  |  |  |  |  |  |  |  |  |  |  | NanoBRET Fold Response ([1]; 0.1μM): 0.99; NanoBRET Fold Response ([1]; 1μM): 1.19; NanoBRET Fold Response ([2]; 0.1μM): 0.98; NanoBRET Fold Response ([2]; 1μM): 0.99; NanoBRET Fold Response ([3]; 0.1μM): 1.05; NanoBRET Fold Response ([3]; 1μM): 0.99; NanoBRET Fold Response ([4]; 0.1μM): 1.04; NanoBRET Fold Response ([4]; 1μM): 1.08; NanoBRET Fold Response ([5]; 0.1μM): 1.05; NanoBRET Fold Response ([5]; 1μM): 0.91; NanoBRET Fold Response ([6]; 0.1μM): 1.05; NanoBRET Fold Response ([6]; 1μM): 0.98; NanoBRET Fold Response ([7]; 0.1μM): 1.03; NanoBRET Fold Response ([7]; 1μM): 0.96; NanoBRET Fold Response ([8]; 0.1μM): 1.05; NanoBRET Fold Response ([8]; 1μM): 0.98; NanoBRET Fold Response ([9]; 0.1μM): 1.34; NanoBRET Fold Response ([9]; 1μM): 0.95; NanoBRET Fold Response ([10]; 0.1μM): 1.07; NanoBRET Fold Response ([10]; 1μM): 1.03
